The experiment concerns spontaneously hypertensive rat. In words: Telemetric monitoring of blood pressure and heart rate in spontaneously hypertensive rats, compounds given via drinking water. The format is in vivo. The note with it: male SHR; for effect on blood pressure (in words): 3 weeks of treatment via drinking water; for DBP (diastolic blood pressure), effect in relation to baseline, group mean of 24 hour means / HR (heart rate), effect in relation to baseline, group mean of 24 hour means / SBP (systolic blood pressure), effect in relation to baseline, group mean of 24 hour means: day 23 (after 3 weeks of treatment) minus baseline (day 3), via drinking water, intended 10 mg/kg/day hydrochlorothiazide, 100 mg/kg/day daglutril, n = 5 per group. From the text:
Male spontaneously hypertensive rats (=SHR, insulin resistant strain from Charles River; aged 6 months) were equipped with telemetry transmitters for continuous monitoring of blood pressure and heart rate (TA11PA-C40, DSI, USA). Telemetry transmitters for continuous monitoring of blood pressure, heart rate and locomotor activity (TA11PA-C40, Data Sciences, USA) were implanted intraabdominally under inhalative halothane anesthesia. A midline abdominal incision was made, and the abdominal aorta was visualized by removal of retroperitoneal fat and connective tissue. A ligature was placed caudal of the renal arteries, the aorta was punctured with a 22G needle, and the catheter was advanced into the aorta. The entry point was sealed with tissue adhesive (Vetbond, 3M, USA), the ligature was removed, and the abdominal incision was closed. Measurements of aortic pressure were taken every 5 minutes (=min) for 4 seconds (=s) each at a sampling rate of 500 Hz, and were corrected for the corresponding ambient pressure (ambient pressure monitor, C11PR, Data Sciences, USA).
After 3 days of monitoring under baseline (untreated) conditions, animals received daglutril via their drinking water. The intended daily dose was 100 mg/kg/day of daglutril. The concentration in drinking water was adjusted once per week, resulting in an average drug intake of 98 mg/kg/day.
In a second experiment, rats were divided into two treatment groups receiving hydrochlorothiazide or hydrochlorothiazide+daglutril. Compounds were administered via the drinking water, and daily drug intake was measured by weighing the water bottles thrice weekly. Intended daily doses were 10 mg/kg/day of hydrochlorothiazide plus, in the combination group, 100 mg/kg/day of daglutril.
Concentrations of hydrochlorothiazide and daglutril in the drinking water were adjusted once per week, in order to ensure the intended daily intake of 10 and 100 mg/kg, respectively. The average daily water intake amounted to 57 and 46 ml/kg in the hydrochlorothiazide and hydrochlorothiazide+daglutril group, respectively, resulting in the uptake of 9.5 mg/kg/day of hydrochlorothiazide in the hydrochlorothiazide group, and 9.4 mg/kg/day of hydrochlorothiazide and 94.4 mg/kg/day of daglutril in the combination group.
The blood pressure, heart rate and activity values, sampled in 5 min intervals by the Dataquest™ system, were used for calculation of individual 24 hour means. These 24 hour means were exported to Excel, and group mean values of systolic blood pressure (=SBP), diastolic blood pressure (=DBP), heart rate (=HR), and locomotor activity (=ACT) were calculated for the daglutril, hydrochlorothiazide and the hydrochlorothiazide+daglutril groups. For the statistical analysis, a baseline value (pre) was calculated from the last day prior to compound application (day 3), and effects of daglutril, hydrochlorothiazide and hydrochlorothiazide+daglutril were calculated in relation to this baseline value (day 23, i.e. after 3 weeks of treatment, minus baseline value). The statistical comparison was done by using univariate ANOVA at an error level of P<0.05.

Take `CCOC(=O)C(CCc1ccccc1)CC1(C(=O)NC2CCc3ccccc3N(CC(=O)O)C2=O)CCCC1` (centres unmarked) [daglutril, 2-[1-(1-carboxymethyl-2-oxo-2,3,4,5-tetrahydro-1H-benzo[b]azepin-3-ylcarbamoyI)-cyclopentylmethyl]-4-phenyl-butyric acid ethyl ester]: the “effect on blood pressure (in words)” value was “no effect”; the “DBP (diastolic blood pressure), effect in relation to baseline, group mean of 24 hour means” value worked out at 2.0 mmHg; the “HR (heart rate), effect in relation to baseline, group mean of 24 hour means” value was -6.0 min⁻¹; the “SBP (systolic blood pressure), effect in relation to baseline, group mean of 24 hour means” value is −0.3 mmHg.
On the same counts, the results for `NS(=O)(=O)c1cc2c(cc1Cl)NCNS2(=O)=O` [HCTZ, hydrochlorothiazide] are “moderate decrease”, −7.7 mmHg, -4.5 min⁻¹ and −11.3 mmHg.

Values taken from patent US20100323012A1, “Pharmaceutical Compositions Comprising NEP-Inhibitors, Inhibitors of the Endogenous Endothelin Producing System and Diuretics” (Solvay Pharmaceuticals GmbH, priority 2005, published 2010).
